Where “and” joins values, the source holds several entries; their conditions need not be identical. Identical values can stand only once. Inconclusive results and toxic doses are left out. No stated cut-off is given here; in the data, active means T/C of 150% or more; inactive means T/C below 125%.
Tested on: L1210 leukemia ip in BDF1 mice, survival T/C
Test: NCI In Vivo Anticancer Drug Screen. Data for tumor model L1210 Leukemia (intraperitoneal) in B6D2F1 (BDF1) mice
Conditions: endpoint: mean survival time, higher = longer survival
Method in brief: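 Value reflects the ratio of survival in compound-treated mice to survival in vehicle-treated controls, with both groups carrying the same transplanted tumor.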

[1] = dose: 100.0 mg/kg/injection, schedule: Q04DX003 (ip), vehicle: saline
[2] = dose: 200.0 mg/kg/injection, schedule: Q04DX003 (ip), vehicle: saline
[3] = dose: 100.0 mg/kg/injection, schedule: Q01DX001 (ip), vehicle: carboxymethylcellulose (CMC)
[4] = dose: 200.0 mg/kg/injection, schedule: Q01DX001 (ip), vehicle: carboxymethylcellulose (CMC)
[5] = dose: 400.0 mg/kg/injection, schedule: Q01DX001 (ip), vehicle: carboxymethylcellulose (CMC)
[6] = dose: 100.0 mg/kg/injection, schedule: Q04DX003 (ip), vehicle: Klucel (hydroxypropylcellulose) (HPC)
[7] = dose: 200.0 mg/kg/injection, schedule: Q04DX003 (ip), vehicle: Klucel (hydroxypropylcellulose) (HPC)
[8] = dose: 400.0 mg/kg/injection, schedule: Q04DX003 (ip), vehicle: Klucel (hydroxypropylcellulose) (HPC)
[9] = dose: 100.0 mg/kg/injection, schedule: Q04DX003 (ip), vehicle: saline with Tween-80
[10] = dose: 200.0 mg/kg/injection, schedule: Q04DX003 (ip), vehicle: saline with Tween-80
[11] = dose: 400.0 mg/kg/injection, schedule: Q04DX003 (ip), vehicle: saline with Tween-80
[12] = dose: 100.0 mg/kg/injection, schedule: Q01DX009 (ip), vehicle: Klucel (hydroxypropylcellulose) (HPC)
[13] = dose: 200.0 mg/kg/injection, schedule: Q01DX009 (ip), vehicle: Klucel (hydroxypropylcellulose) (HPC)
[14] = dose: 100.0 mg/kg/injection, schedule: Q01DX009 (ip), vehicle: saline

Measured: T/C

Cc1cccc(SC(=O)Nc2ccc(Cl)cc2C)c1
inactive: dose: 12.5 mg/kg/injection, schedule: Q01DX009 (ip), vehicle: saline with Tween-80 91 % of control | dose: 25.0 mg/kg/injection, schedule: Q01DX009 (ip), vehicle: saline with Tween-80 95 % of control | dose: 50.0 mg/kg/injection, schedule: Q01DX009 (ip), vehicle: saline with Tween-80 119 % of control

Cc1c(CCO)sc[n+]1Cc1ccccc1
inactive: dose: 100.0 mg/kg/injection, schedule: Q04DX002 (ip), vehicle: saline 93 % of control | dose: 200.0 mg/kg/injection, schedule: Q04DX002 (ip), vehicle: saline 100 % of control

C(=N\c1ncn[nH]1)/Nc1ncn[nH]1
inactive: [1] 94 % of control | [2] 96 % of control

C(=N/N=C/c1cccnc1)/c1cccnc1
inactive: dose: 100.0 mg/kg/injection, schedule: Q01DX001 (ip), vehicle: other 104 % of control | dose: 200.0 mg/kg/injection, schedule: Q01DX001 (ip), vehicle: other 110 % of control | dose: 400.0 mg/kg/injection, schedule: Q01DX001 (ip), vehicle: other 110 % of control

C=CCc1ccc(OC(=O)Nc2ccc(S(=O)(=O)CC)cc2)c(OC)c1
inactive: [3] 90 % of control | [4] 93 % of control | [5] 93 % of control

CC1CC2NC(C)CC3NC(C)CC(N1)N32 (stereo not given)
inactive: [6] 106 % of control | [7] 97 % of control | [8] 111 % of control

CCN1CC2C3CCC(C)(O3)C2C1 (stereo not given)
inactive: dose: 44.0 mg/kg/injection, schedule: Q01DX Z (ip), vehicle: methylcellulose (MC) 100 % of control | dose: 66.0 mg/kg/injection, schedule: Q01DX Z (ip), vehicle: methylcellulose (MC) 92 % of control | dose: 100.0 mg/kg/injection, schedule: Q01DX Z (ip), vehicle: methylcellulose (MC) 98 % of control

Cc1ccc2c(c1)=N/C(=N\c1nc(O)c(O)[nH]1)N=2
inactive: [9] 97 % of control | [10] 108 % of control | [11] 103 % of control

N#CCCN(CCCN1CCOCC1)C(=S)Nc1ccc(Cl)cc1
inactive: dose: 100.0 mg/kg/injection, schedule: Q04DX002 (ip), vehicle: saline with Tween-80 94 % of control | dose: 200.0 mg/kg/injection, schedule: Q04DX002 (ip), vehicle: saline with Tween-80 90 % of control | dose: 400.0 mg/kg/injection, schedule: Q04DX002 (ip), vehicle: saline with Tween-80 101 % of control

O=Cc1[nH]c(=S)[nH]c(=O)c1Cc1c(Cl)cccc1Cl
inactive: dose: 100.0 mg/kg/injection, schedule: Q01DX001 (ip), vehicle: saline with Tween-80 101 % of control | dose: 200.0 mg/kg/injection, schedule: Q01DX001 (ip), vehicle: saline with Tween-80 101 % of control | dose: 400.0 mg/kg/injection, schedule: Q01DX001 (ip), vehicle: saline with Tween-80 106 % of control

CC(=O)Nc1cccc(OCCOc2ccc([N+](=O)[O-])cc2)c1
inactive: [3] 92 % of control | [4] 92 % of control | [5] 90 % of control

CC(=N\O)/C(=N\O)C(=O)c1ccccc1
inactive: dose: 100.0 mg/kg/injection, schedule: Q01DX009 (ip), vehicle: saline with Tween-80 110 % of control | [9] 96 % of control | dose: 200.0 mg/kg/injection, schedule: Q01DX009 (ip), vehicle: saline with Tween-80 95 % of control | [10] 101 % of control | [11] 98 % of control

CC1(C)C2CCC1(C)C(COC(=O)c1cc([N+](=O)[O-])cc([N+](=O)[O-])c1)C2 (stereo not given)
inactive: [12] 100 % of control | [6] 104 % of control | [13] 92 % of control | [7] 100 % of control | dose: 400.0 mg/kg/injection, schedule: Q01DX009 (ip), vehicle: Klucel (hydroxypropylcellulose) (HPC) 89 % of control | [8] 102 % of control

CC(=O)OCC1OC(n2cc(C)c(=O)[nH]c2=O)CC1OC(C)=O (stereo not given)
inactive: dose: 684.0 mg/kg/injection, schedule: Q02DX010 (ip), vehicle: other 99 % of control | dose: 1368.0 mg/kg/injection, schedule: Q02DX010 (ip), vehicle: other 105 % of control | dose: 2052.0 mg/kg/injection, schedule: Q02DX010 (ip), vehicle: other 96 % of control

COC(OC)C1OC(C)(C)OC1C(OS(=O)(=O)c1ccc(C)cc1)C1COC(C)(C)O1 (stereo not given)
inactive: [9] 97 % of control | [10] 91 % of control | [11] 89 % of control

CCCCCCCCCC(=O)NC(=S)Nc1ccc(Br)cc1
inactive: dose: 100.0 mg/kg/injection, schedule: Q01DX001 (ip), vehicle: Klucel (hydroxypropylcellulose) (HPC) 93 % of control | [12] 93 % of control and 98 % of control | dose: 100.0 mg/kg/injection, schedule: Q04DX002 (ip), vehicle: Klucel (hydroxypropylcellulose) (HPC) 98 % of control and 91 % of control | [6] 92 % of control | dose: 200.0 mg/kg/injection, schedule: Q01DX001 (ip), vehicle: Klucel (hydroxypropylcellulose) (HPC) 91 % of control | [13] 91 % of control | dose: 200.0 mg/kg/injection, schedule: Q04DX002 (ip), vehicle: Klucel (hydroxypropylcellulose) (HPC) 96 % of control and 88 % of control | [7] 94 % of control | dose: 400.0 mg/kg/injection, schedule: Q01DX001 (ip), vehicle: Klucel (hydroxypropylcellulose) (HPC) 94 % of control | dose: 400.0 mg/kg/injection, schedule: Q04DX002 (ip), vehicle: Klucel (hydroxypropylcellulose) (HPC) 96 % of control and 88 % of control | [8] 102 % of control

Cc1cccc(C)c1NC(=S)NC1CC(C)CC(C)(C)C1 (stereo not given)
inactive: dose: 12.5 mg/kg/injection, schedule: Q01DX009 (ip), vehicle: Klucel (hydroxypropylcellulose) (HPC) 100 % of control | dose: 25.0 mg/kg/injection, schedule: Q01DX009 (ip), vehicle: Klucel (hydroxypropylcellulose) (HPC) 109 % of control | dose: 50.0 mg/kg/injection, schedule: Q01DX009 (ip), vehicle: Klucel (hydroxypropylcellulose) (HPC) 96 % of control

CCCCCCCCCCCCCCCCCC(=O)[O][Hg][c]1ccccc1
inactive: dose: 5.0 mg/kg/injection, schedule: Q01DX001 (ip), vehicle: carboxymethylcellulose (CMC) 94 % of control | dose: 8.0 mg/kg/injection, schedule: Q01DX015 (ip), vehicle: carboxymethylcellulose (CMC) 96 % of control | dose: 10.0 mg/kg/injection, schedule: Q01DX001 (ip), vehicle: carboxymethylcellulose (CMC) 94 % of control | dose: 10.0 mg/kg/injection, schedule: Q01DX009 (ip), vehicle: saline with Tween-80 94 % of control | dose: 16.0 mg/kg/injection, schedule: Q01DX015 (ip), vehicle: carboxymethylcellulose (CMC) 92 % of control | dose: 20.0 mg/kg/injection, schedule: Q01DX001 (ip), vehicle: carboxymethylcellulose (CMC) 92 % of control | dose: 20.0 mg/kg/injection, schedule: Q01DX009 (ip), vehicle: saline with Tween-80 110 % of control | dose: 20.0 mg/kg/injection, schedule: Q04DX003 (ip), vehicle: saline 102 % of control | dose: 32.0 mg/kg/injection, schedule: Q01DX015 (ip), vehicle: carboxymethylcellulose (CMC) 94 % of control | dose: 40.0 mg/kg/injection, schedule: Q01DX001 (ip), vehicle: carboxymethylcellulose (CMC) 100 % of control | dose: 40.0 mg/kg/injection, schedule: Q04DX003 (ip), vehicle: saline 98 % of control

CCCCC(CC)COP(=O)(OCC(CC)CCCC)c1ccccc1 (stereo not given)
inactive: dose: 50.0 mg/kg/injection, schedule: Q01DX001 (ip), vehicle: saline 100 % of control | dose: 100.0 mg/kg/injection, schedule: Q01DX001 (ip), vehicle: saline 100 % of control

CNCCN(C)CCNC
inactive: dose: 50.0 mg/kg/injection, schedule: Q01DX009 (ip), vehicle: saline 104 % of control | [14] 101 % of control | [1] 103 % of control | [2] 96 % of control

Oc1ccc(-c2cc(O)c(-c3ccc(O)cc3)cc2O)cc1
inactive: [14] 95 % of control

— PubChem BioAssay AID248 (DTP/NCI, 2004)
